The source of these data is patent US20240059691A1 (KALVISTA PHARMACEUTICALS LIMITED, priority 2020, published 2024).

Holding throughout (type): biochemical
One test addresses KLK1 (Homo sapiens (Human), UniProt P06870). The experiment in a line: Determination of related protease inhibition: KLK1 (fluorogenic substrate at Km). Conditions: 25° C. As to the method: (§1) Determination of Related Protease Inhibition
(§2) In vitro inhibition of related proteases was determined using an ([…] assay based on standard literature methods (see e.g. Shori et al., Biochem. Pharmacol., 1992, 43, 1209; Bouckaert et al., European Journal of Medicinal Chemistry 110 (2016) 181). Human serine protease enzymes Plasma Kallikrein, KLK1, FXa, Plasmin, Thrombin and Trypsin were assayed for enzymatic activity using an appropriate fluorogenic substrate at Km concentration, FXIa at fixed substrate concentration of 100 μM, and various concentrations of the test compound. Protease activity was measured by monitoring the accumulation of liberated fluorescence from the substrate over […]. The linear rate of fluorescence increase per minute was expressed as percentage (%) activity. IC50 values were calculated as the concentration of inhibitor giving 50% inhibition of the uninhibited enzyme activity (100%).

In the next test the target is Human Factor XIIa (Homo sapiens (Human), UniProt P00748). Put plainly: Determination of FXIIa inhibition (fluorogenic substrate H-DPro-Phe-Arg-AFC, IC50 assay). Conditions: substrate H-DPro-Phe-Arg-AFC at Km, 25° C.; for IC50: class scale A-G. In short, it runs like this: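 Human FXIIa incubated at 25° C with fluorogenic substrate H-DPro-Phe-Arg-AFC at its Km concentration and varying compound concentrations. Fluorescence release monitored over 5 min at 25° C; linear rate expressed as % of uninhibited activity to derive IC50.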

Another test deals with FXa (Homo sapiens (Human), UniProt P00742). Put plainly: Determination of related protease inhibition: FXa (fluorogenic substrate at Km). Conditions: 25° C. As to the method:
as §1, §2

Each structure is given as a SMILES string.

Chain of KLK1 (P06870 25-262): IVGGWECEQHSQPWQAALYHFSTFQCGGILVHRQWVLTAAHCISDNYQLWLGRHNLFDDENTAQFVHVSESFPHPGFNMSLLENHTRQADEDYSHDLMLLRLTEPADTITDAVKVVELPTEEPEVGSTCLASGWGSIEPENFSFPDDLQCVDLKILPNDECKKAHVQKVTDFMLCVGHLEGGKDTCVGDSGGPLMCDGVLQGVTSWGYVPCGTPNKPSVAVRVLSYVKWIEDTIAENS
Chain of Human Factor XIIa (P00748 373-615): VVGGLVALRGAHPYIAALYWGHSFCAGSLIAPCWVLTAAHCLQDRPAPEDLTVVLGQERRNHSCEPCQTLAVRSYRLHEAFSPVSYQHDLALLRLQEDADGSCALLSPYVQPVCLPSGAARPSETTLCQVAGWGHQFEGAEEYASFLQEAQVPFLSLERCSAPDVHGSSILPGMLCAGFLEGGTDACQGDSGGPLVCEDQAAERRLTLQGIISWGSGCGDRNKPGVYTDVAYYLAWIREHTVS
Chain of FXa (P00742 235-488): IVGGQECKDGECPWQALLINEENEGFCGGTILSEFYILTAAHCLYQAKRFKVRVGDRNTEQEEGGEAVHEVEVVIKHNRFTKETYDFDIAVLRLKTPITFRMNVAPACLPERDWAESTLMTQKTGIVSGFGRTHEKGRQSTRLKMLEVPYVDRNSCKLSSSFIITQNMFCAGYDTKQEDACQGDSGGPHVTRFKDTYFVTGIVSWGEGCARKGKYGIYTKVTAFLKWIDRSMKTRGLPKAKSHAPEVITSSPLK
Chain of FXa (P00742 41-179 partner): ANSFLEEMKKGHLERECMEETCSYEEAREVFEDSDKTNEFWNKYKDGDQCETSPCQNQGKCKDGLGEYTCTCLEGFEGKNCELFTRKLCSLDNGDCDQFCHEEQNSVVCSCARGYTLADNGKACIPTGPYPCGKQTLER

The term IC50 denotes the concentration that gives 50% inhibition. On to `Nc1nccc2c(NCc3cnc(N4CCn5c(nnc5C(F)(F)F)C4)cn3)cccc12` [Example 9002, N5-((5-(3-(trifluoromethyl)-5,6-dihydro-[1,2,4]triazolo[4,3-a]pyrazin-7(8H)-yl)pyrazin-2-yl)methyl)isoquinoline-1,5-diamine], for which the values for the IC50 at KLK1 and against Human Factor XIIa were 3 to 10 µM and 0.3 to 1 µM, respectively.

As for `N#Cc1cc(NCc2ccc(N3CCn4c(nnc4C(F)(F)F)C3)nc2)c2cc(Cl)[nH]c2n1` [Example 1292], the IC50 on FXa and on KLK1 was over 40 µM throughout. Also, the “Human FXIIa IC50 (nM): test compounds that did not achieve 50% inhibition” value on Human Factor XIIa (class scale H1-H3 for compounds that did not achieve 50% inhibition) is recorded as “H1 (>20% inhibition @ 40 μM)”.

For the molecule `CCc1cc(N2CCn3c(nnc3C(F)(F)F)C2)ncc1CNc1cccc2c(N)nccc12` [Example 1309, N5-((4-ethyl-6-(3-(trifluoromethyl)-5,6-dihydro-[1,2,4]triazolo[4,3-a]pyrazin-7(8H)-yl)pyridin-3-yl)methyl)isoquinoline-1,5-diamine], the IC50 against KLK1 was over 4 µM; on Human Factor XIIa, 0.01 to 0.1 µM.

Take `CC1CN(c2ccc(CNc3cccc4c(N)nccc34)cn2)Cc2nnc(C(F)(F)F)n21` (centres unmarked) [Example 1287, N5-((6-(5-methyl-3-(trifluoromethyl)-5,6-dihydro-[1,2,4]triazolo[4,3-a]pyrazin-7(8H)-yl)pyridin-3-yl)methyl)isoquinoline-1,5-diamine]: the IC50 against FXa is over 40 µM; on KLK1, 1 to 3 µM; on Human Factor XIIa, 1 to 3 µM.

Take `CC(C)N1C[C@H]2C[C@@H]1CN2Cc1cc(CNc2cccc3c(N)nccc23)ccn1` [Example 4295, 5-N-[(2-{[(1R,4R)-5-isopropyl-2,5-diazabicyclo[2.2.1]heptan-2-yl]methyl}pyridin-4-yl)methyl]isoquinoline-1,5-diamine]: the IC50 against KLK1 and against Human Factor XIIa was 10 to 40 µM each time.

Regarding `CC(C)Oc1cc(NCc2ccc(N3CCn4c(nnc4C(F)(F)F)C3)nc2)ccn1` [Example 1290, 2-isopropoxy-N-((6-(3-(trifluoromethyl)-5,6-dihydro-[1,2,4]triazolo[4,3-a]pyrazin-7(8H)-yl)pyridin-3-yl)methyl)pyridin-4-amine], the IC50 on FXa and at KLK1 was over 40 µM throughout.

In the case of `Nc1nccc2c(N3CCCC3c3ccc(N4CCn5c(nnc5C(F)(F)F)C4)nc3)cccc12` (racemic) [Example 10002, 5-(2-(6-(3-(Trifluoromethyl)-5,6-dihydro-[1,2,4]triazolo[4,3-a]pyrazin-7(8H)-yl)pyridin-3-yl)pyrrolidin-1-yl)isoquinolin-1-amine], the IC50 is over 40 µM on FXa, 10 to 40 µM against KLK1 and 1 to 3 µM on Human Factor XIIa.

`Nc1nccc2c(NCc3cnc(N4CCn5c(nnc5C(F)(F)F)C4)c(C(F)(F)F)c3)cccc12` [Example 1306, N5-((5-(trifluoromethyl)-6-(3-(trifluoromethyl)-5,6-dihydro-[1,2,4]triazolo[4,3-a]pyrazin-7(8H)-yl)pyridin-3-yl)methyl)isoquinoline-1,5-diamine]: on KLK1, the IC50 was in the range of 1 to 3 µM.

With `Cc1cc(NCc2ccc(N3CCn4c(nnc4C(F)(F)F)C3)nc2)c2cc(Cl)[nH]c2n1` [Example 1293, 2-chloro-6-methyl-N-((6-(3-(trifluoromethyl)-5,6-dihydro-[1,2,4]triazolo[4,3-a]pyrazin-7(8H)-yl)pyridin-3-yl)methyl)-1H-pyrrolo[2,3-b]pyridin-4-amine], the IC50 against FXa and at KLK1 was over 40 µM in each case.

In the case of `CC1Cn2c(nnc2C(F)(F)F)CN1c1ccc(CNc2cccc3c(N)nccc23)cn1` (centres unmarked) [Example 1311, N5-((6-(6-Methyl-3-(trifluoromethyl)-5,6-dihydro-[1,2,4]triazolo[4,3-a]pyrazin-7(8H)-yl)pyridin-3-yl)methyl)isoquinoline-1,5-diamine], the IC50 against KLK1 fell in the range of 3 to 10 µM; against Human Factor XIIa, 0.01 to 0.1 µM.

Turning to `FC(F)(F)c1nnc2n1CCN(c1ccc(CNc3cnc4[nH]cc(Cl)c4c3)cn1)C2` [Example 1289, 3-chloro-N-((6-(3-(trifluoromethyl)-5,6-dihydro-[1,2,4]triazolo[4,3-a]pyrazin-7(8H)-yl)pyridin-3-yl)methyl)-1H-pyrrolo[2,3-b]pyridin-5-amine], the IC50 at FXa and against KLK1 was over 40 µM throughout.

Turning to `FC(F)(F)c1nnc2n1CCN(c1ccc(CNc3ccn4ccnc4c3)cn1)C2` [Example 1288, N-((6-(3-(trifluoromethyl)-5,6-dihydro-[1,2,4]triazolo[4,3-a]pyrazin-7(8H)-yl)pyridin-3-yl)methyl)imidazo[1,2-a]pyridin-7-amine], the IC50 was over 40 µM on FXa and over 100 µM on KLK1.

In the case of `Nc1nccc2c(N3CCCC3c3ccc(N4CCn5c(nnc5C(F)(F)F)C4)nc3)cccc12` (single isomer, unassigned) [Example 10004, (R*)-5-(2-(6-(3-(trifluoromethyl)-5,6-dihydro-[1,2,4]triazolo[4,3-a]pyrazin-7(8H)-yl)pyridin-3-yl)pyrrolidin-1-yl)isoquinolin-1-amine], the values for the IC50 against FXa, at KLK1 and against Human Factor XIIa were over 40 µM, 10 to 40 µM and 0.3 to 1 µM, respectively.

Regarding `CC(C)(O)c1cn(-c2ccc(CNc3cccc4c(N)nccc34)cn2)nn1` [Example 1291, 2-(1-(5-(((1-aminoisoquinolin-5-yl)amino)methyl)pyridin-2-yl)-1H-1,2,3-triazol-4-yl)propan-2-ol], the IC50 on FXa was over 40 µM; at KLK1 it was 10 to 40 µM; against Human Factor XIIa it was 3 to 10 µM.

Turning to `Cc1nnc2n1CCN(c1ccc(CNc3cccc4c(N)nccc34)cn1)CC2` [Example 1310, N5-((6-(3-methyl-5,6,8,9-tetrahydro-7H-[1,2,4]triazolo[4,3-d][1,4]diazepin-7-yl)pyridin-3-yl)methyl)isoquinoline-1,5-diamine], the IC50 against KLK1 and against Human Factor XIIa was 1 to 3 µM in each case.

Take `Cc1cc(N2CCn3c(nnc3C(F)(F)F)C2)ncc1CNc1ccnc2[nH]c(Cl)cc12` [Example 1313, 2-Chloro-N-((4-methyl-6-(3-(trifluoromethyl)-5,6-dihydro-[1,2,4]triazolo[4,3-a]pyrazin-7(8H)-yl)pyridin-3-yl)methyl)-1H-pyrrolo[2,3-b]pyridin-4-amine]: the IC50 is over 4 µM on KLK1 and 0.1 to 0.3 µM against Human Factor XIIa.

`CC(C)c1cc(N2CCn3c(nnc3C(F)(F)F)C2)ncc1CNc1cccc2c(N)nccc12` [Example 1308, N5-((4-isopropyl-6-(3-(trifluoromethyl)-5,6-dihydro-[1,2,4]triazolo[4,3-a]pyrazin-7(8H)-yl)pyridin-3-yl)methyl)isoquinoline-1,5-diamine]: the IC50 on KLK1 was in the range of 3 to 10 µM; against Human Factor XIIa, 1 to 3 µM.

Regarding `Nc1nccc2c(NCc3cnc(N4CCn5c(nnc5C(F)(F)F)C4)nc3)cccc12` [Example 9003, N5-((2-(3-(trifluoromethyl)-5,6-dihydro-[1,2,4]triazolo[4,3-a]pyrazin-7(8H)-yl)pyrimidin-5-yl)methyl)isoquinoline-1,5-diamine], the IC50 against KLK1 was in the range of 3 to 10 µM; against Human Factor XIIa, 1 to 3 µM.

For the molecule `Nc1nccc2c(NCc3cnc(N4CCn5c(nnc5C(F)(F)F)C4)cc3C3CC3)cccc12` [Example 1307, N5-((4-cyclopropyl-6-(3-(trifluoromethyl)-5,6-dihydro-[1,2,4]triazolo[4,3-a]pyrazin-7(8H)-yl)pyridin-3-yl)methyl)isoquinoline-1,5-diamine], the results for the IC50 at KLK1 and against Human Factor XIIa were 3 to 10 µM and 0.3 to 1 µM, respectively.

On to `Cc1cc(N2CCn3c(nnc3C(F)(F)F)C2C)ncc1CNc1cccc2c(N)nccc12` (single isomer, unassigned) [Example 1304, (R*)-N5-((4-methyl-6-(8-methyl-3-(trifluoromethyl)-5,6-dihydro-[1,2,4]triazolo[4,3-a]pyrazin-7(8H)-yl)pyridin-3-yl)methyl)isoquinoline-1,5-diamine], for which the IC50 at KLK1 and against Human Factor XIIa was 3 to 10 µM throughout.

`Cc1cc(N2CCn3c(nnc3C(F)(F)F)C2)cnc1CNc1cccc2c(N)nccc12` [Example 9005, N5-((3-Methyl-5-(3-(trifluoromethyl)-5,6-dihydro-[1,2,4]triazolo[4,3-a]pyrazin-7(8H)-yl)pyridin-2-yl)methyl)isoquinoline-1,5-diamine]: the IC50 against KLK1 was over 4 µM; on Human Factor XIIa, 0.01 to 0.1 µM.

Take `Nc1nccc2c(NCc3ccc(N4CCn5c(nnc5C(F)(F)F)C4)nn3)cccc12` [Example 9004, N5-((6-(3-(Trifluoromethyl)-5,6-dihydro-[1,2,4]triazolo[4,3-a]pyrazin-7(8H)-yl)pyridazin-3-yl)methyl)isoquinoline-1,5-diamine]: the results for the IC50 at KLK1 and against Human Factor XIIa were 3 to 10 µM and 0.3 to 1 µM, respectively.

Take `Cc1cc(N2CCn3c(nnc3C(F)(F)F)C2C)ncc1CNc1cccc2c(N)nccc12` (racemic) [Example 1303, N5-((4-Methyl-6-(8-methyl-3-(trifluoromethyl)-5,6-dihydro-[1,2,4]triazolo[4,3-a]pyrazin-7(8H)-yl)pyridin-3-yl)methyl)isoquinoline-1,5-diamine]: the values for the IC50 against KLK1 and against Human Factor XIIa were over 4 µM and 0.01 to 0.1 µM, respectively.
